From PubChem BioAssay AID296 (DTP/NCI, 2004)
Several values for one entry are separate records, joined by “and”; a condition that tells them apart may be missing. Equal values may be shown once. Results filed as inconclusive are left out.

System: MX-1 breast xenograft, nude mice, tumor weight T/C
Experiment: NCI In Vivo Anticancer Drug Screen. Data for tumor model Human Mammary Carcinoma MX-1 Xenograft (intrarenal inoculation) in NU/NU Swiss (nude) mice
Details: endpoint: mean tumor weight change, higher = larger tumour
In short: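 Antitumour effect measured in vivo against vehicle controls, expressed as T/C.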

[1] = dose: 150.0 mg/kg/injection, schedule: Q04DX003 (sc), vehicle: saline with Tween-80
[2] = dose: 300.0 mg/kg/injection, schedule: Q04DX003 (sc), vehicle: saline with Tween-80
[3] = dose: 12.5 mg/kg/injection, schedule: Q01DX010 (sc), vehicle: saline

Cc1c(N)nc([C@H](CC(N)=O)NC[C@H](N)C(N)=O)nc1C(=O)N[C@H](C(=O)N[C@H](C)[C@@H](O)[C@H](C)C(=O)N[C@H](C(=O)NCCc1nc(-c2nc(C(=O)NCCC[S+](C)C)cs2)cs1)[C@@H](C)O)C(OC1OC(CO)C(O)C(O)C1OC1OC(CO)C(O)C(OC(N)=O)C1O)c1cnc[nH]1 (some centres undefined)
T/C (dose: 4.0 mg/kg/injection, schedule: Q01DX010 (ip), vehicle: saline): 86 % of control
T/C (dose: 6.25 mg/kg/injection, schedule: Q04DX003 (sc), vehicle: saline): 93 % of control
T/C (dose: 8.0 mg/kg/injection, schedule: Q01DX010 (ip), vehicle: saline): 55 % of control
T/C (dose: 8.0 mg/kg/injection, schedule: Q04DX003 (sc), vehicle: saline): 87 % of control
T/C (dose: 13.3 mg/kg/injection, schedule: Q04DX003 (sc), vehicle: saline): 67 % of control
T/C (dose: 13.33 mg/kg/injection, schedule: Q04DX003 (ip), vehicle: saline): 101 % of control and 120 % of control
T/C (dose: 13.33 mg/kg/injection, schedule: Q04DX003 (sc), vehicle: saline): 45 % of control
T/C (dose: 16.0 mg/kg/injection, schedule: Q01DX010 (ip), vehicle: saline): 49 % of control
T/C (dose: 16.0 mg/kg/injection, schedule: Q04DX003 (sc), vehicle: saline): 46 % of control
T/C (dose: 25.0 mg/kg/injection, schedule: Q04DX003 (sc), vehicle: saline): 50 % of control
T/C (dose: 26.65 mg/kg/injection, schedule: Q04DX003 (ip), vehicle: saline): 71 % of control
T/C (dose: 26.66 mg/kg/injection, schedule: Q04DX003 (ip), vehicle: saline): 89 % of control
T/C (dose: 32.0 mg/kg/injection, schedule: Q01DX010 (ip), vehicle: saline): 53 % of control
T/C (dose: 32.0 mg/kg/injection, schedule: Q04DX003 (sc), vehicle: saline): 15 % of control
T/C (dose: 37.5 mg/kg/injection, schedule: Q04DX003 (sc), vehicle: saline): 80 % of control
T/C (dose: 50.0 mg/kg/injection, schedule: Q04DX003 (sc), vehicle: saline): 46 % of control
T/C (dose: 53.3 mg/kg/injection, schedule: Q04DX003 (ip), vehicle: saline): 63 % of control
T/C (dose: 53.3 mg/kg/injection, schedule: Q04DX003 (sc), vehicle: saline): 49 % of control
T/C (dose: 53.33 mg/kg/injection, schedule: Q04DX003 (ip), vehicle: saline): 59 % of control
T/C (dose: 53.33 mg/kg/injection, schedule: Q04DX003 (sc), vehicle: saline): 106 % of control
T/C (dose: 75.0 mg/kg/injection, schedule: Q04DX003 (sc), vehicle: saline): 30 % of control
T/C (dose: 106.6 mg/kg/injection, schedule: Q04DX003 (ip), vehicle: saline): 88 % of control
T/C (dose: 106.6 mg/kg/injection, schedule: Q04DX003 (sc), vehicle: saline): 51 % of control
T/C (dose: 106.66 mg/kg/injection, schedule: Q04DX003 (sc), vehicle: saline): 64 % of control
T/C (dose: 150.0 mg/kg/injection, schedule: Q04DX003 (sc), vehicle: saline): 17 % of control

CCOC(=O)/N=[N+](\[O-])c1ccccc1
T/C (dose: 37.5 mg/kg/injection, schedule: Q04DX003 (ip), vehicle: saline with Tween-80): 110 % of control

COC1=CC(=O)C(OC)=C(OC)C1=O
T/C (dose: 37.5 mg/kg/injection, schedule: Q04DX003 (sc), vehicle: saline with Tween-80): 86 % of control
T/C [1]: 93 % of control

Cc1c2ccc3ccccc3c2c[n+]2ccccc12
T/C (dose: 9.38 mg/kg/injection, schedule: Q04DX003 (sc), vehicle: Klucel (hydroxypropylcellulose) (HPC)): 75 % of control
T/C (dose: 18.75 mg/kg/injection, schedule: Q04DX003 (sc), vehicle: Klucel (hydroxypropylcellulose) (HPC)): 77 % of control

CC12CCC3C(CCC4CC(OC(=O)Cc5ccc(N(CCCl)CCCl)cc5)CCC43C)C1CCC(=O)N2 (centres undefined)
T/C (dose: 25.0 mg/kg/injection, schedule: Q04DX003 (sc), vehicle: saline with Tween-80): 3 % of control
T/C (dose: 400.0 mg/kg/injection, schedule: Q04DX003 (sc), vehicle: saline with Tween-80): -82 % of control

CO[C@H](C(=O)[C@@H](O)[C@@H](C)O)[C@@H]1Cc2cc3cc(OC4CC(OC5CC(O)C(O)C(C)O5)C(O)C(C)O4)c(C)c(O)c3c(O)c2C(=O)[C@H]1OC1CC(OC2CC(OC3CC(C)(O)C(O)C(C)O3)C(O)C(C)O2)C(O)C(C)O1 (some centres undefined)
T/C (dose: 0.25 mg/kg/injection, schedule: Q01DX010 (sc), vehicle: saline): 86 % of control
T/C (dose: 0.25 mg/kg/injection, schedule: Q04DX003 (sc), vehicle: saline): 105 % of control
T/C (dose: 0.5 mg/kg/injection, schedule: Q04DX003 (sc), vehicle: saline): 72 % of control
T/C (dose: 0.75 mg/kg/injection, schedule: Q04DX003 (sc), vehicle: saline): 66 % of control
T/C (dose: 1.0 mg/kg/injection, schedule: Q04DX003 (sc), vehicle: saline): 42 % of control
T/C (dose: 1.5 mg/kg/injection, schedule: Q04DX003 (sc), vehicle: saline): 26 % of control
T/C (dose: 2.0 mg/kg/injection, schedule: Q01DX010 (sc), vehicle: saline): -98 % of control
T/C (dose: 2.0 mg/kg/injection, schedule: Q04DX003 (sc), vehicle: saline): -34 % of control

COC1C(N)C(OC2C(Oc3cccc4c(O)c5c(=O)oc6ccc(C)c7c(=O)oc(c34)c5c67)OC(C)C(O)C2(C)O)OC(C)C1O (centres undefined)
T/C (dose: 2.5 mg/kg/injection, schedule: Q04DX003 (ip), vehicle: lactic acid): 51 % of control
T/C (dose: 5.0 mg/kg/injection, schedule: Q04DX003 (ip), vehicle: lactic acid): 49 % of control
T/C (dose: 10.0 mg/kg/injection, schedule: Q04DX003 (ip), vehicle: lactic acid): 9 % of control

COc1cccc2c1C(=N)c1c(O)c3c(c(O)c1C2=O)C[C@@](O)(C(C)=O)C[C@@H]3OC1CC(N)C(O)C(C)O1 (some centres undefined)
T/C (dose: 4.0 mg/kg/injection, schedule: Q01DX010 (sc), vehicle: water): 62 % of control
T/C (dose: 16.0 mg/kg/injection, schedule: Q01DX010 (sc), vehicle: water): 13 % of control and 21 % of control

FC(F)(F)c1nc2nc(Cl)c(Cl)nc2[nH]1
T/C (dose: 75.0 mg/kg/injection, schedule: Q04DX003 (sc), vehicle: saline with Tween-80): 92 % of control
T/C [1]: 97 % of control
T/C [2]: 90 % of control

COc1cc(C(=O)N/N=C/c2cccc([N+](=O)[O-])c2)cc(OC)c1OC
T/C [1]: 178 % of control
T/C [2]: 114 % of control
T/C (dose: 600.0 mg/kg/injection, schedule: Q04DX003 (sc), vehicle: saline with Tween-80): 67 % of control
T/C (dose: 1200.0 mg/kg/injection, schedule: Q04DX003 (sc), vehicle: saline with Tween-80): 108 % of control

CN1CCN(c2ccc([N+](=O)[O-])c3no[n+]([O-])c23)CC1
T/C (dose: 20.0 mg/kg/injection, schedule: Q01DX010 (sc), vehicle: saline with Tween-80): 45 % of control
T/C (dose: 40.0 mg/kg/injection, schedule: Q01DX010 (sc), vehicle: saline with Tween-80): 69 % of control

COC1N(C2CC(O)C(CO)O2)C(=O)NC(=O)C1(F)Br (centres undefined)
T/C [3]: 117 % of control

CC1OC1C(=O)C1(O)C(C)C(O)C23OC2(C(O)c2c(O)cccc2C3=O)C1O (centres undefined)
T/C (dose: 12.0 mg/kg/injection, schedule: Q04DX003 (sc), vehicle: Klucel (hydroxypropylcellulose) (HPC)): 102 % of control
T/C (dose: 24.0 mg/kg/injection, schedule: Q04DX003 (sc), vehicle: Klucel (hydroxypropylcellulose) (HPC)): 83 % of control
T/C (dose: 48.0 mg/kg/injection, schedule: Q04DX003 (sc), vehicle: Klucel (hydroxypropylcellulose) (HPC)): 83 % of control

Cc1cc(C)c(-c2cc(O)c(C)cc2O)c(C)c1
T/C (dose: 300.0 mg/kg/injection, schedule: Q04DX003 (sc), vehicle: Klucel (hydroxypropylcellulose) (HPC)): 588 % of control
T/C (dose: 600.0 mg/kg/injection, schedule: Q04DX003 (sc), vehicle: Klucel (hydroxypropylcellulose) (HPC)): 557 % of control
T/C (dose: 1200.0 mg/kg/injection, schedule: Q04DX003 (sc), vehicle: Klucel (hydroxypropylcellulose) (HPC)): 388 % of control
T/C (dose: 2400.0 mg/kg/injection, schedule: Q04DX003 (sc), vehicle: Klucel (hydroxypropylcellulose) (HPC)): 420 % of control

CN(C)C(=O)c1cccc(COc2ccc(N3C(N)=NC(N)=NC3(C)C)cc2Cl)c1
T/C (dose: 6.25 mg/kg/injection, schedule: Q01DX010 (sc), vehicle: saline): 104 % of control
T/C [3]: 118 % of control
T/C (dose: 25.0 mg/kg/injection, schedule: Q01DX010 (sc), vehicle: saline): 49 % of control

CO[C@H](/C(C)=C/C=C/C(C)=C/c1coc(C)n1)[C@H](C)[C@H]1C[C@@H](O)[C@@]2(C)O[C@H]2/C=C/[C@@H](C)[C@@H]2C[C@@H](CC(=O)O2)C[C@H]2O[C@@H]2C(=O)O1
T/C (dose: 0.25 mg/kg/injection, schedule: Q04DX003 (ip), vehicle: Klucel (hydroxypropylcellulose) (HPC)): 34 % of control
T/C (dose: 0.5 mg/kg/injection, schedule: Q04DX003 (ip), vehicle: Klucel (hydroxypropylcellulose) (HPC)): 2 % of control
T/C (dose: 1.0 mg/kg/injection, schedule: Q04DX003 (ip), vehicle: Klucel (hydroxypropylcellulose) (HPC)): 3 % of control
T/C (dose: 2.0 mg/kg/injection, schedule: Q04DX003 (ip), vehicle: Klucel (hydroxypropylcellulose) (HPC)): -26 % of control
